Assay results taken from US11000033B2, “Ketone or oxime compound, and herbicide” (NISSAN CHEMICAL CORPORATION, priority 2014, dated 2021).

Experiments:
Assay type in all cases: in vivo
[1] = tested on: transplanted rice plant; assay: Test Example 1: effect on crop, application before weed generation in submerged conditions (symbol a); settings: application herbicide amount 320 g/ha
Procedure, shortened: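 Rice at 2.5 leaf stage transplanted into submerged soil (4 cm depth) sown with three weed species; herbicide applied before weed emergence.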

[2] = tested on: Galium spurium; assay: Test Example 4: herbicidal effect by soil treatment (symbol Q); settings: application herbicide amount 320 g/ha
Procedure, shortened: (§1)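 Seeds were sown in sterilized diluvial soil, covered with about 1.5 cm of soil, and the soil surface was sprayed with a water-diluted emulsion of the compound at a predetermined rate. Plants grew in a greenhouse at 25° C. to 30° C.; effects were scored visually 3 weeks after application.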

[3] = tested on: rapeseed; assay: Test Example 4: effect on crop by soil treatment (symbol g); settings: application herbicide amount 320 g/ha
Procedure, shortened: (§2)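 Diluvial soil (sterilized) in boxes; seeds placed spot-wise alongside weed species; ~1.5 cm covering soil. Greenhouse, 25–30° C.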

[4] = tested on: rice; assay: Test Example 4: effect on crop by soil treatment (symbol b); settings: application herbicide amount 320 g/ha
Procedure, shortened: as §2

[5] = tested on: Alopecurus myosuroides; assay: Test Example 5: herbicidal effect by foliage application, plastic box (symbol J); settings: 320 g/ha, 3 weeks after application
Procedure, shortened: (§3)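 Herbicide, formulated as an emulsion and diluted in water, is sprayed onto the aerial parts of 14-day seedlings. These were grown at 25° C. to 30° C. in sterilized diluvial soil; effects are graded after 3 weeks.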

[6] = tested on: wheat; assay: Test Example 5: effect on crop by foliage application, plastic box (symbol e); settings: 320 g/ha, 3 weeks after application
Procedure, shortened: (§4)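 Box culture: sterile diluvial soil, seeds spot-sown, ~1.5 cm cover, raised under glass at 25–30° C.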

[7] = tested on: Scirpus juncoides; assay: Test Example 2: herbicidal activity, application during weed generation in submerged conditions (symbol B); settings: Table 23; application herbicide amount 320 g/ha; grade 0-5 by criteria of Test Example 1
Procedure, shortened: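 Steps: fill pots with alluvial soil; add water to 4 cm depth; co-sow the three weeds; grow at 25° C. to 30° C. under glass; at 1–2 leaves, dose the floodwater with diluted emulsion; rate damage visually after 3 weeks.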

[8] = tested on: Alopecurus myosuroides; assay: Test Example 4: herbicidal effect by soil treatment (symbol J); settings: application herbicide amount 320 g/ha
Procedure, shortened: as §1

[9] = tested on: Digitaria ciliaris; assay: Test Example 4: herbicidal effect by soil treatment (symbol F); settings: application herbicide amount 320 g/ha
Procedure, shortened: as §1

[10] = tested on: beet; assay: Test Example 5: effect on crop by foliage application, plastic box (symbol f); settings: 320 g/ha, 3 weeks after application
Procedure, shortened: as §4

[11] = tested on: corn; assay: Test Example 5: effect on crop by foliage application, plastic box (symbol c); settings: 320 g/ha, 3 weeks after application
Procedure, shortened: as §4

[12] = tested on: corn; assay: Test Example 4: effect on crop by soil treatment (symbol c); settings: application herbicide amount 320 g/ha
Procedure, shortened: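 Plants are raised in a greenhouse (25° C. to 30° C.) from spot-sown seed, which sits under about 1.5 cm of sterilized diluvial soil in a box shared with weed species.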

[13] = tested on: Lolium multiflorum Lam.; assay: Test Example 5: herbicidal effect by foliage application, plastic box (symbol K); settings: 320 g/ha, 3 weeks after application
Procedure, shortened: as §3

[14] = tested on: Veronica persica; assay: Test Example 5: herbicidal effect by foliage application, plastic box (symbol R); settings: 320 g/ha, 3 weeks after application
Procedure, shortened: as §3

[15] = tested on: Veronica persica; assay: Test Example 4: herbicidal effect by soil treatment (symbol R); settings: application herbicide amount 320 g/ha
Procedure, shortened: as §1

Row | Structure (SMILES) | Effect grade on crop, a: transplanted rice plant [1] | Q: Galium spurium, herbicidal effect grade [2] | g: rapeseed, effect on crop grade [3] | b: directly sowed rice plant, effect on crop grade [4] | J: Alopecurus myosuroides, herbicidal effect grade [5] | e: wheat, effect on crop grade [6] | Herbicidal effect grade, B: Scirpus juncoides [7] | J: Alopecurus myosuroides, herbicidal effect grade [8] | F: Digitaria ciliaris, herbicidal effect grade [9] | f: beet, effect on crop grade [10] | c: corn, effect on crop grade [11] | c: corn, effect on crop grade [12] | K: Lolium multiflorum Lam., herbicidal effect grade [13] | Q (Galium spurium) herbicidal effect grade [2] | b (directly sowed rice plant) effect on crop grade [4] | J (Alopecurus myosuroides) herbicidal effect grade [8] | F (Digitaria ciliaris) herbicidal effect grade [9] | R: Veronica persica, herbicidal effect grade [14] | c (corn) effect on crop grade [12] | R: Veronica persica, herbicidal effect grade [15]
1 | CCC(CCC1CC(O)=C(c2c(C)cc(C)cc2C)C1=O)=NOC (mixture of isomers) [4-001] | 0 (Herbicidal ratio of 5% or lower (almost no effect)) | 0 (Herbicidal ratio of 5% or lower (almost no effect)) | 1 (Herbicidal ratio of 5% or higher and lower than 20%) | 5 (Herbicidal ratio of 90% or more (almost completely withered)) | 5 (Herbicidal ratio of 90% or more (almost completely withered)) | 0 (Herbicidal ratio of 5% or lower (almost no effect)) | 0 (Herbicidal ratio of 5% or lower (almost no effect)) | 3 (Herbicidal ratio of 40% or higher and lower than 70%) | 2 (Herbicidal ratio of 20% or higher and lower than 40%) | 0 (Herbicidal ratio of 5% or lower (almost no effect)) | 1 (Herbicidal ratio of 5% or higher and lower than 20%) | 0 (Herbicidal ratio of 5% or lower (almost no effect)) | 5 (Herbicidal ratio of 90% or more (almost completely withered)) |  |  |  |  |  |  | 
2 | CON=C(C)CC1CC(OC(=O)OC)=C(c2c(C)cc(C)cc2C)C1=O (stereo not drawn) [1-014] | 5 (Herbicidal ratio of 90% or more (almost completely withered)) |  |  |  | 5 (Herbicidal ratio of 90% or more (almost completely withered)) | 5 (Herbicidal ratio of 90% or more (almost completely withered)) | 3 (Herbicidal ratio of 40% or higher and lower than 70%) |  |  | 3 (Herbicidal ratio of 40% or higher and lower than 70%) | 5 (Herbicidal ratio of 90% or more (almost completely withered)) |  | 5 (Herbicidal ratio of 90% or more (almost completely withered)) | 5 (Herbicidal ratio of 90% or more (almost completely withered)) | 4 (Herbicidal ratio of 70% or higher and lower than 90%) | 5 (Herbicidal ratio of 90% or more (almost completely withered)) | 5 (Herbicidal ratio of 90% or more (almost completely withered)) | 3 (Herbicidal ratio of 40% or higher and lower than 70%) | 4 (Herbicidal ratio of 70% or higher and lower than 90%) | 
3 | CCc1cc(C)cc(C)c1C1=C(O)CC(CC(C)=NOC)C1=O (stereo not drawn) [6-007] | 5 (Herbicidal ratio of 90% or more (almost completely withered)) | 0 (Herbicidal ratio of 5% or lower (almost no effect)) |  | 5 (Herbicidal ratio of 90% or more (almost completely withered)) | 5 (Herbicidal ratio of 90% or more (almost completely withered)) | 5 (Herbicidal ratio of 90% or more (almost completely withered)) | 3 (Herbicidal ratio of 40% or higher and lower than 70%) | 5 (Herbicidal ratio of 90% or more (almost completely withered)) | 5 (Herbicidal ratio of 90% or more (almost completely withered)) | 0 (Herbicidal ratio of 5% or lower (almost no effect)) | 5 (Herbicidal ratio of 90% or more (almost completely withered)) | 5 (Herbicidal ratio of 90% or more (almost completely withered)) | 5 (Herbicidal ratio of 90% or more (almost completely withered)) |  |  |  |  |  |  | 
4 | CCc1cc(-n2cc(Cl)cn2)cc(C)c1C1=C(O)CC(CC(C)=NOC)C1=O (mixture of isomers) [6-005] | 5 (Herbicidal ratio of 90% or more (almost completely withered)) | 0 (Herbicidal ratio of 5% or lower (almost no effect)) | 0 (Herbicidal ratio of 5% or lower (almost no effect)) | 5 (Herbicidal ratio of 90% or more (almost completely withered)) | 5 (Herbicidal ratio of 90% or more (almost completely withered)) | 4 (Herbicidal ratio of 70% or higher and lower than 90%) | 2 (Herbicidal ratio of 20% or higher and lower than 40%) | 5 (Herbicidal ratio of 90% or more (almost completely withered)) | 5 (Herbicidal ratio of 90% or more (almost completely withered)) | 0 (Herbicidal ratio of 5% or lower (almost no effect)) | 5 (Herbicidal ratio of 90% or more (almost completely withered)) | 3 (Herbicidal ratio of 40% or higher and lower than 70%) | 5 (Herbicidal ratio of 90% or more (almost completely withered)) |  |  |  |  |  |  | 
5 | COCC(=O)CC1CC(O)=C(c2c(C)cc(C)cc2C)C1=O (stereo not drawn) [2-007] | 4 (Herbicidal ratio of 70% or higher and lower than 90%) | 0 (Herbicidal ratio of 5% or lower (almost no effect)) | 4 (Herbicidal ratio of 70% or higher and lower than 90%) | 5 (Herbicidal ratio of 90% or more (almost completely withered)) | 4 (Herbicidal ratio of 70% or higher and lower than 90%) | 0 (Herbicidal ratio of 5% or lower (almost no effect)) | 0 (Herbicidal ratio of 5% or lower (almost no effect)) | 3 (Herbicidal ratio of 40% or higher and lower than 70%) | 5 (Herbicidal ratio of 90% or more (almost completely withered)) | 0 (Herbicidal ratio of 5% or lower (almost no effect)) | 1 (Herbicidal ratio of 5% or higher and lower than 20%) | 0 (Herbicidal ratio of 5% or lower (almost no effect)) | 4 (Herbicidal ratio of 70% or higher and lower than 90%) |  |  |  |  |  |  | 
6 | C=CC(=O)CC1CC(O)=C(c2c(C)cc(C)cc2C)C1=O (stereo not drawn) [2-031] | 5 (Herbicidal ratio of 90% or more (almost completely withered)) |  | 3 (Herbicidal ratio of 40% or higher and lower than 70%) | 5 (Herbicidal ratio of 90% or more (almost completely withered)) | 5 (Herbicidal ratio of 90% or more (almost completely withered)) | 0 (Herbicidal ratio of 5% or lower (almost no effect)) | 0 (Herbicidal ratio of 5% or lower (almost no effect)) | 3 (Herbicidal ratio of 40% or higher and lower than 70%) | 5 (Herbicidal ratio of 90% or more (almost completely withered)) | 0 (Herbicidal ratio of 5% or lower (almost no effect)) | 5 (Herbicidal ratio of 90% or more (almost completely withered)) | 5 (Herbicidal ratio of 90% or more (almost completely withered)) | 5 (Herbicidal ratio of 90% or more (almost completely withered)) |  |  |  |  | 4 (Herbicidal ratio of 70% or higher and lower than 90%) |  | 0 (Herbicidal ratio of 5% or lower (almost no effect))
